The source of these data is US20230257710A1, “NATURAL KILLER CELL HAVING CONTROLLED ONCOLOGY-RELEATED GENE EXPRESSION, AND USE THEREOF” (SUNGKWANG MEDICAL FOUNDATION, priority 2020, published 2023).

This series has as its system A2780cis xenograft. The class given is in vivo, NSG mice. As for the experimental part:
The efficacy was evaluated by confirming the growth inhibitory effect of natural killer cells (pNK) cultured by the culture method according to one aspect as an immuno-anticancer agent. An A2780cis xenograft mouse model was prepared by subcutaneously injecting the […] ovarian cancer cell line A2780cis into the fat pad of 7-week-old NSG mice in an amount of 2×10^6 (cells). After ovarian cancer cell lines were injected, mice with tumors were randomly grouped on day 3: a group treated with intraperitoneal injection of cisplatin at 1 mg/kg, once/week; a group treated with intravenous injected of natural killer cells according to one aspect in the number of 1×10^7 (cells), 2 times/week; and a control group treated with the injection of PBS (FIG. 8). After injection of the ovarian cancer cell line, tumor size and body weight were measured daily.

Take `N.N.[Cl][Pt][Cl]` [cisplatin]: the “cancer cell growth inhibitory effect” value (compared to the control group (PBS), A2780cis xenograft NSG mice) is given as “about 55%”. Moreover, for the setting “mouse, in vivo”, the “change in body weight” value is on record as “no significant change in body weight”.
